Source: US20210355509A1, “ALTERNATIVE SPLICING REGULATION OF GENE EXPRESSION AND THERAPEUTIC METHODS” (THE CHILDREN'S HOSPITAL OF PHILADELPHIA, priority 2018, published 2021)

Columns and labels:
Cas9 = experiment: SMN2_CRISPRi regulated Cas9 expression, Western blot; format: cell-based, human; settings: RG7800 1 μM, HEK293 cells transfected with the SMN2_CRISPRi system
Description: (§1) HEK293 cells were transfected with plasmids encoding the CRISPRi silencing system (dCas9, sgRNA and MCP-Krab expression cassettes). Importantly, the dCas9 was cloned under the SMN2 splice regulated cassette to control dCas9 protein expression with RG7800. 24 hours after transfection, cells were selected using Puromicin (3 μM, 24 h), passaged onto a new plate, and treated with RG7800 (1 μM). HEK293 cells were lysed 36 h after RG7800 treatment using Passive lysis buffer (Promega, CA), and Huntingtin (HTT), Cas9 and Beta Catenin (Beta cat) protein levels were determined by Western Blot. Beta Catenin protein levels were determined as loading control. HTT, Cas9 and Beta Cat protein levels were quantified using the ChemiDoc Imaging System (Bio-Rad) and Imagine Lab analysis Software.

HTT = experiment: SMN2_CRISPRi regulated epigenetic silencing, Western blot; format: cell-based, human; settings: RG7800 1 μM, HEK293 cells transfected with the SMN2_CRISPRi system
Description: as §1

SMN2 minigene Exon 7 = experiment: SMN2 minigene PCR splicing assay with RG7800; format: cell-based, human; settings: RG7800 10 nM, 100 nM, 1 μM and 10 μM; HEK293
Description: HEK293 cells were transfected with plasmids expressing the SMN2 minigene (0.3 μg) and 4 hours later treated with different doses of RG7800 (10 nM, 100 nM, 1 μM and 10 μM). 24 hours after transfection, RNA was harvested, DNAseI treated, and 1 μg of RNA was reverse transcribed to assess SMN2 minigene splicing using PCR. PCR products were separated on a 3% agarose gel and exon 7 production was quantified using the ChemiDoc Imaging System (Bio-Rad) and Imagine Lab analysis Software.

HEK293 cells = experiment: De novo exon splicing in response to LMI070, RNA-seq and PCR validation; format: cell-based, human; settings: LMI070 25 nM, PCR
Description: The following methods were used to obtain the data illustrated in FIGS. 8-15. […] 12 hours after treatment RNA was extracted using Trizol followed by DNAseI treatment. Samples were evaluated for quality control on agilent bioanalyzer and all samples had RIN values >9.8 and were sent for Illumina RiboZero Gold total RNA library preparation and sequencing with an Illumina HiSeq4000. A 150 bp Pair end sequencing reads were obtained from illumina sequencing. Fastq files obtained from the illumina platform were aligned to the Human genome GRCh38 using the STAR aligner. SAM format alignment files output from STAR were sorted, converted to BAM format and indexed using Samtools. To visualize splicing at any region in the alignment BAM files were opened in IGV and visualized using the Sashimi plot function.
To identify regions of interest which contained high levels of differential splicing a custom R program was created. […] These files contained the raw counts obtained at each splice junction as calculated during alignment by STAR. […] 1) Read input files into R. 2) Create unique position IDs for each row (splice site) in the dataset. […] 6) sort the extracted reads from highest to lowest by Mean counts value. […]
The following methods were used to obtain the data in FIG. 16. […] As observed on the PCR, PCR products of higher size were detected on samples treated with LM1070 (FIG. 16). […]

SMN2 exon 7 [1] = settings: mouse brain; cited from earlier work
[2] = LMI070 pharmacokinetics in mice, oral; format: in vivo; settings: 3 mg/Kg
SMN2 exon 7 [3] = experiment: SMN2/transactivator minigene exon 7 splicing, semi-quantitative RT-PCR; format: cell-based, human
From the text: FIGS. 4a-c show modified SMN2/transactivator minigenes express spliced RNA transcript isoforms to constitutively exclude (CSI3) or include (CSI5) exon7, influencing background expression of the optimized RNAi promoter. […] The 3′ and 5′ Exon7 splicing sites in the SMN2/transactivator minigene were modified to constitutively exclude (CSI3, 3′ modified) or include (CSI5, 5′ modified) exon 7.
FIGS. 5a-b show splicing and activity of CSI and CSI3 minigenes in response to LIM070.
To regulate transactivator expression, the transactivator was cloned downstream of a self-cleaving 2A peptide and the SMN2 minigene comprising exons 6-7 and the 5′ end of exon 8, and minimal intronic intervening sequences necessary to recapitulate SMN2 splicing^38 (FIG. 4a). Note that 10% of the transcripts include exon 7, similar to the native SMN2 genetic state. The transcripts produce transactivator that partially activates the RNAi expression cassette. Thus, the 3′ and 5′ Exon7 splicing sites in the SMN2/transactivator minigene were modified to constitutively exclude (CSI3, 3′ modified) or include (CSI5, 5′ modified) exon 7, which minimizes RNAi promoter background activation^39 (FIGS. 4b-c). […] Also, the entire cassette fits into rAAV.

[4] = mice, oral, 3 mg/Kg, serum; read-out: Cmax (maximum concentration); cited from earlier work
SMN mouse model = settings: cited from earlier work

| SMILES | Cas9 protein levels (Cas9) | HTT expression levels reduced (HTT) | Exon 7 inclusion in the SMN2 minigene (SMN2 minigene Exon 7) | de novo exon splicing (HEK293 cells) | maximum dose reported to increase SMN2 exon 7 inclusion (SMN2 exon 7 [1]) [mg/kg] | concentration in the brain [2] [nM] | exon 7 inclusion at brain-equivalent concentration (SMN2 exon 7 [3]; 120 nM, CSI and CSI3 minigenes (FIG. 5)) | exon 7 inclusion in response to LMI070 (SMN2 exon 7 [3]; HEK293 cells, CSI and CSI3 minigenes, 20 h after LMI070 treatment) | Cmax [4] [nM] | minimal dose with therapeutic effects (SMN mouse model) [mg/kg] |
| --- | --- | --- | --- | --- | --- | --- | --- | --- | --- | --- |
| CCc1nc(C)cn2nc(-c3cc(=O)n4cc(C5CCN(C)CC5)cc(C)c4n3)cc12 [RG7800] | increase | about 45% | induction of Exon 7 inclusion |  |  |  |  |  |  |  |
| CC1(C)CC(Oc2ccc(-c3ccc(-c4cn[nH]c4)cc3O)nn2)CC(C)(C)N1 [LMI070] |  |  |  | novel exons are included | 30 | 120 | induces exon 7 inclusion | dose-responsive | 86 | 1 |
